Data: patent US9023857B2, “Substituted 6-(2-aminobenzylamino)purine derivatives, their use as medicaments and preparations containing these compounds” (Univerzita Palackeho V Olomouci, priority 2009, dated 2015)

Columns and labels:
[1] = tested on: P388D1 leukemia transplanted intraperitoneally; test: In vivo anticancer activity, survival model of P388D1 leukemia; conditions: DBA-2 mice, orally twice daily 250 mg/kg, Days 1-3 and 7-9
Experimental: DBA-2 mice were used as a host. One day following the leukemia transplantation, treatment with 105 was initiated. […] Survival analysis of treated animals (10 mice/group) was preformed in comparison with vehicle treated mice using Kaplan-Meier method and the significance was evaluated by the log-rank test. Body weight of experimental animals was evaluated in parallel in order to reflect toxicity and efficacy of therapy. Comparative analysis of body weight was performed using […].

[2] = tested on: cervical carcinoma cells HELA; test: In vitro cytotoxic activity (Calcein AM, 72 hours), HELA; conditions: Homo sapiens, read-out: Cytotoxicity IC50 HeLa
[3] = tested on: A549 lung adenocarcinoma xenograft; test: In vivo anticancer activity, human xenograft model of A549 lung adenocarcinoma
[4] = tested on: HIV promoter integrated into cellular DNA (H1299-HIV cells); test: β-galactosidase expression from pHIV-lacZ incorporated to cellular genome (H1299-HIV); conditions: HIV promoter integrated into cellular DNA (FIG. 11)
[5] = tested on: CMV promoter (plasmid pCMV-lacZ); test: β-galactosidase expression from transiently transfected pCMV-lacZ in MCF-7 and T47D; conditions: transiently transfected MCF-7 and T47D (FIG. 9)
SV40 large T-antigen = type: cell-based
[6] = tested on: SV40 large T-antigen in COS-1 cells; test: Expression from SV40 promoter incorporated in the cellular genome (COS-1 cells); type: cell-based; conditions: COS-1 cells (FIG. 10)
Experimental: Cell were detached with rubber policeman and washed three times with ice-cold PBS and lysed in buffer (50 mM Tris, pH 7.4, 250 mM NaCl, 5 mM EDTA, 50 mM NaF, 1 mM Na3VO4, 1% Nonidet P40) containing mixture of protease and phosphatase inhibitors (Sigma-Aldrich St Louis, Mo., USA). 20 μg of total proteins were separated by SDS-polyacrylamide gel electrophoresis (SDS-PAGE) on 8% or 10% gels and transferred onto nitrocellulose membranes. Membranes were blocked in 5% milk and 0.1% Tween 20 in PBS and probed overnight with specific monoclonal antibodies or rabbit polyclonal sera. Primary antibodies specific for RNA polymerase II (all from Santa Cruz Biotechnology, California, USA) included: (i) N-20 used at […] (ii) H14, specific for form phosphorylated at phosphoserine 5, used at 6 μg/ml and (iii) H5, specific for form phosphorylated at phosphoserine 2 used at 4 μg/ml. Additional primary mAb used in immunblots included (iv) anti-p53 (D0-1, in house, […]) used at 1 μg/ml, (v) anti-p21^WAF1 (118, in house), used at 1 μg/ml), (vi) anti-actin (A-2066, Sigma-Aldrich St Louis, Mo., USA) used at 1 μg/ml, (vii) anti-T-antigen (419, in house, Lane), used at 1 μg/ml. All primary antibodies were diluted in PBS containing 5% powdered milk; 0.1% Tween 20. […]

MV = MV syncytium reduction assay in B95a cells; type: cell-based, Measles virus wildtype strain WTFb
[7] = tested on: p53 protein in osteosarcoma cell line HOS (mut p53); test: p53 protein expression in HOS cells (immunoblotting); type: cell-based, human; conditions: HOS (mutant p53), 5 μM, 6, 12 and 24 hrs
Experimental: (a) DO-1, DO-2 and 1801 monoclonal antibodies recognise the N-terminal region of p53 protein, monoclonal antibodies DO-11 and DO-12 recognise different epitopes in the core domain of p53 protein, monoclonal antibodies Bp53-10 and Pab421 recognise the C-terminal region of p53 protein. (b) Monoclonal antibody 118 recognises p21^WAF1.
For direct immunoblotting, total cellular protein lysates were prepared by harvesting cells in hot Laemmli electrophoresis sample buffer. Proteins were then separated by SDS-polyacrylamide gel electrophoresis (SDS-PAGE) on 10% gel and transferred onto a nitrocellulose membrane in Bio.Rad Mini Trans-Blott Electrophoretic Transfer Cell for 2 hrs at 4° C. applying 150 mA in transfer buffer ([…], 190 mM glycine and 20% methanol). Prestained molecular weight markers (Bio-Rad) were run in parallel. […]
First, we determined appropriate concentration of 103 and 105 for our experiments. The MCF-7 (wt p53) cells were treated for 12 hrs with increasing concentrations of 105 ranging from 1 to 100 μM and analysed for p53 protein expression using monoclonal antibody DO-1 (FIG. 3A). […] We analysed the expression of p53 protein in MCF-7 (wt p53), BT549 (mut p53) and BT474 (mut p53) breast cancer cell lines, in HT29 (mut p53) colorectal cancer cell line and in ostaosarcoma cell line HOS (mut p53). […]

[8] = tested on: human malignant melanoma G 361; test: In vitro cytotoxic activity (Calcein AM, 72 hours), G 361; conditions: G-361, 72 h, read-out: Cytotoxicity IC50 G361
[9] = tested on: human erythroleukaemia K562; test: In vitro cytotoxic activity (Calcein AM, 72 hours), K562; conditions: K562, 72 h, read-out: Cytotoxicity IC50 K-562
[10] = tested on: p53-responsive reporter pRGCΔfoslacZ in human melanoma cell line Arn8; test: p53-dependent transcriptional activity, β-galactosidase reporter in Arn8 cells

SMILES: CCC(CO)Nc1nc(NCc2ccccc2N)c2ncn(C(C)C)c2n1 (stereo not drawn) [Compound 105, 2-({6-[(2-aminobenzyl)amino]-9-isopropyl-9H-purin-2-yl}amino)butan-1-ol]
- body weight of treated animals [1]: reducing body weight
- mean survival time [1]: 15.4 days
- survival analysis (Kaplan-Meier, log-rank) ([1]; P=0.0409 versus vehicle): significantly better survival
- IC50 [2]: 2.5 µM
- tolerability in animals ([3]; CD-1 SCID mice, orally twice daily 150 mg/kg, Days 1-3 and 7-9): good tolerability
- tumor volume analysis ([3]; CD-1 SCID mice, orally twice daily 150 mg/kg, P=0.0409 versus vehicle): significantly smaller tumors
- mean survival time ([3]; as printed in the A549 tumor volume paragraph): 15.4 days
- increase of reporter readout [4]: 4 times
- expression from CMV promoter (β-galactosidase activity) [5]: inhibited expression
- level of large T-antigen (SV40 large T-antigen): reduced level
- large T-antigen expression [6]: stimulated large T-antigen expression
- inhibition of virus replication (in words) (MV): ineffective
- induction of p53 [7]: No induction
- IC50 [8]: 8 µM
- IC50 [9]: 12.8 µM
- blue-coloured cells (β-galactosidase activity, X-gal substrate) ([10]; Arn8 cells, 5 μM): about 25%
- total β-galactosidase activity, colorimetric assay ([10]; Arn8 cells, 12 and 24 hours after treatment): strong activity
- Max. β-Gal. Activtity Conc. ([10]; concentration inducing maximum of β-galactosidase activity (p53-responsive reporter)): 16 µM
